Here are results for seven substances from US8263056B2, “Dyed-hair-binding peptides and peptide-based hair reagents for personal care” (E I du Pont de Nemours and Company, priority 2007, dated 2012).

The conditions of this experiment: read-out: EC50 (concentration at which half the maximum binding was observed by measuring A405 nm), binding to dyed hair, ELISA-type assay. An excerpt: Each selection round was monitored for enrichment of phage displaying dyed-hair-binding peptides using ELISA-like assays in the deep well plates performed using an anti-M13 phage antibody conjugated to horseradish-peroxidase, followed by the addition of a chromogenic agent ABTS (2,2′-azino-bis(3-ethylbenzthiazoline-6-sulphonic acid)). The plates were read at 405 nm.
Relative binding strengths of the phage can also be determined by testing serial dilutions of the phage for binding to dyed hair in an ELISA. For example, serial dilutions of the display-selected clones were exposed to dyed hair in an ELISA. […] Primers against the phage vector sequence (available from New England BIOLABS®) that flank the insertion site were used to determine the DNA sequence encoding the peptide for the phage in each group. […] The DNA sequences encoding dyed-hair-binding peptides isolated were determined. Peptides Dye-1 through Dye-16 were those sequenced after round 4 of selection. Peptides Dye 17 through Dye-28 were those isolated and sequenced after a fifth round of selection.
The ELISA-type assay described in Example 1 was used to evaluate the affinity of dyed-hair-binding peptides for dyed hair. All of the synthesize peptides in Table 2 were evaluated for their ability to bind to dyed hair versus two negative controls (a non-selected peptide and a blank (no peptide)).
The EC50 values (the concentration at which half the maximum binding was observed by measuring A405 nm) were deduced and given in Table 3.

Turning to “SSNDSNVSWFHYYASGLTSSR-GSSG-SRKSSQKNPHHPKPPKKPTAR-GSSGK (biotin) [Aff15025]”, the EC50 is roughly 25 nM. The value for YYYDYYQQDYSSR-GSSGK (biotin) [Aff15027] was roughly 1000 nM. The same measure for “SSNDSNVSWFHYYASGLTSSR-GSSGK-(biotin) [Aff15013]”: roughly 1000 nM; for NYNYNYNYQYSSR-GSSGK (biotin) [Aff15011]: greater than 10000 nM; for “LLSDFHYGDMWDASR-GSSGK (biotin) [Aff15016]”: roughly 1000 nM. The same measure for QYYQDYQYYHSSR-GSSK (biotin) [Aff15029]: roughly 1000 nM; for YHYDYDHYYESSR-GSSGK (biotin) [Aff15030]: roughly 1000 nM.
